Several values for one entry are separate records, joined by “and”; a condition that tells them apart may be missing. Equal values may be shown once.

This experiment has as its system mice. Description: Warm renal ischemia/reperfusion repeat study Step 2, 25 minutes ischemia (Example 3). The conditions noted are these: for MDA level as an index of lipid peroxidation / uremia (urea) / MPO activity as an index of neutrophil accumulation / creatininemia (creatinine): individual data and Mean ± SEM, n=6. Type of experiment: in vivo. As for the experimental part:
Nine Experimental groups were used in Step 2: • 1) Sham-operated mice sacrificed 1 day after surgery, n=6, • 2) PBS-vehicle-treated mice 15 minutes before ischemia/1 day reperfusion, n=6, • 3) Isotype control antibody 10 mg/kg-treated mice 15 minutes before 25 minutes ischemia/1 day reperfusion, n=6 (The isotype control antibody is mouse IgG1 isotype control purchased from RnD systems (catalogue number MAB002), this isotype control antibody having binding specificity for Keyhole Limpet Hemocyanin (KLH) antigen), • 4) OPN301 anti-TLR2 monoclonal antibody 10 mg/kg-treated mice 15 minutes before 25 minutes ischemia/1 day reperfusion, n=6, • 5) Pargyline 6 mg/kg-treated mice 15 minutes before 25 minutes ischemia/1 day reperfusion, n=6, • 6) PBS-vehicle-treated mice 15 minutes before 25 min ischemia/5 day reperfusion, n=6, • 7) Isotype control antibody (RnD Systems catalogue Number MAB002) 10 mg/kg-treated mice 15 minutes before 25 minutes ischemia/5 day reperfusion, n=6, • 8) OPN301 anti-TLR2 monoclonal antibody 10 mg/kg-treated mice 15 minutes before 25 minutes ischemia/5 day reperfusion, n=6, • 9) Pargyline 6 mg/kg-treated mice 15 minutes before 25 minutes ischemia/5 day reperfusion, n=6, Experimental Warm Renal Ischemia/Reperfusion (Step 1 and 2)
Briefly, mice were anesthetized with 10 μl/g of a mix of 2.5 ml ketamine (Ketalar 50 mg/mL, Centravet; Lapalisse, France), 0.5 ml xylazine (Rompun 2.5%, Centravet; Lapalisse, France), and 7 mL NaCl 0.9% (Centravet; Lapalisse, France). During surgery, animals were set on a 35° C. hotplate.
After a 2 millimetre incision was made at the right jugular level, jugular vein was exposed for a 1 minute-intravenous injection (insulin syringe; VWR, Fontenay-sous-Bois, France) of 70 μl of the considered treatment then closed after haemostasis (5/0 Ethicrin thread, Ethicon; Auneau, France). In Step 1, no jugular injection was performed.
Three centimetre midline incisions were made to abdominal cutaneous followed by muscular incisions were performed; renal pedicles were exposed and clamped for 25 minutes using microaneurysm clamps (AREX; Palaiseau, France). At the time of clamp installation and removal, kidneys were inspected for blood flow arrest and restoration, respectively. During renal ischemia duration, the abdomen was wrapped up to avoid loss of heat and be kept in relative intra-abdominal pressure. At the time of abdomen closing in 2 layers (5/0 Ethicrin thread, Ethicon; Auneau, France), mice were supplemented with 1 mL sterile NaCl (sodium chloride) 0.9% to maintain fluid balance and volume status. Finally, all mice received an intramuscular injection of 10 mg/kg profenid 50 mg/mL (Centravet; Lapalisse, France) for analgesic purpose then allowed to recover from surgery for 12 hours at 32° C. in a ventilated stove. Food and water were given ad libitum. Sham-operated mice underwent the same procedure without clamping.
At the end of the protocol, mice were sacrificed by lethal injection of pentobarbital (100 μL/10 g, Ceva Sante Animale; Libourne, France) 1 and 5 days after surgery.
Experimental methodology such as urea, creatinine, MPO and MDA as described in Example 2.
The results were given as mean values±standard error of the mean (SEM). A one-way ANOVA was used for comparison of within-group difference followed by a Newman-Keuls test for comparison of all pairs of columns (GraphPad Prism, San Diego, USA). A p<0.05 was accepted for statistical significance.

As for `C#CCN(C)Cc1ccccc1` [Pargyline], for the setting “1 day after 25 minute ischemia”, the “effect on renal function impairment induced by ischemic injury, in words” value is “without effects”. The “MDA level as an index of lipid peroxidation” value (“MDA level as an index” below) (Day 1 after 25 minute ischemia, PBS-vehicle 0.153 ± 0.014) was 0.285 nmol/mg proteins and 0.163 nmol/mg proteins and 0.212 nmol/mg proteins and 0.242 nmol/mg proteins and 0.249 nmol/mg proteins and 0.202 nmol/mg proteins; the “MDA level as an index” value (Day 1 after 25 minute ischemia, PBS-vehicle 0.153 ± 0.014, mean) is reported as 0.225 ± 0.017 nmol/mg proteins; the “MDA level as an index” value (Day 5 after 25 minute ischemia, PBS-vehicle 0.188 ± 0.019) is 0.290 nmol/mg proteins and 0.231 nmol/mg proteins and 0.218 nmol/mg proteins and 0.261 nmol/mg proteins and 0.234 nmol/mg proteins and 0.299 nmol/mg proteins; the “MDA level as an index” value (Day 5 after 25 minute ischemia, PBS-vehicle 0.188 ± 0.019, mean) is 0.255 ± 0.014 nmol/mg proteins. Also, the “uremia (urea)” value reads like this: (Day 1 after 25 minute ischemia, PBS-vehicle 31.05 ± 5.70) 47.99 mmol/L and 48.92 mmol/L and 40.01 mmol/L and 27.83 mmol/L and 19.35 mmol/L and 18.22 mmol/L; (Day 1 after 25 minute ischemia, PBS-vehicle 31.05 ± 5.70, listed as pargyline) 33.72 ± 5.64 mmol/L; (Day 1 after 25 minute ischemia, PBS-vehicle 31.05 ± 5.70, mean) 33.72 ± 5.64 mmol/L; (Day 5 after 25 minute ischemia, PBS-vehicle 8.78 ± 0.72) 7.63 mmol/L and 9.48 mmol/L and 7.37 mmol/L and 7.53 mmol/L and 8.78 mmol/L and 7.29 mmol/L; (Day 5 after 25 minute ischemia, PBS-vehicle 8.78 ± 0.72, mean) 8.01 ± 0.37 mmol/L. Besides, the “MPO activity as an index of neutrophil accumulation” value runs as follows: (Day 1 after 25 minute ischemia, PBS-vehicle 80.45 ± 8.66) 57.37±5.78 U MPO/mg protein and 47.9 U MPO/mg protein and 52.7 U MPO/mg protein and 68.7 U MPO/mg protein and 80.7 U MPO/mg protein and 48.8 U MPO/mg protein and 45.4 U MPO/mg protein; (Day 5 after 25 minute ischemia, PBS-vehicle 54.95 ± 0.62) 44.4 U MPO/mg protein and 49.2 U MPO/mg protein and 47.6 U MPO/mg protein and 42.2 U MPO/mg protein and 46.3 U MPO/mg protein and 49.6 U MPO/mg protein; (Day 5 after 25 minute ischemia, PBS-vehicle 54.95 ± 0.62, mean) 46.55 ± 1.17 U MPO/mg protein. The “creatininemia (creatinine)” value reads like this: (Day 1 after 25 minute ischemia, PBS-vehicle 99.97 ± 25.64) 185.9 µmol/L and 150.7 µmol/L and 134.1 µmol/L and 77.6 µmol/L and 53.3 µmol/L and 26.6 µmol/L; (Day 1 after 25 minute ischemia, PBS-vehicle 99.97 ± 25.64, listed as pargyline) 104.7 ± 25.20 µmol/L; (Day 1 after 25 minute ischemia, PBS-vehicle 99.97 ± 25.64, mean) 104.7 ± 25.20 µmol/L; (Day 5 after 25 minute ischemia, PBS-vehicle 21.97 ± 1.84) 16 μmol/L and 27.2 μmol/L and 30.7 μmol/L and 19.2 μmol/L and 22.9 μmol/L (2×); (Day 5 after 25 minute ischemia, PBS-vehicle 21.97 ± 1.84, mean) 23.15 ± 2.16 µmol/L.

For the origin of these results see patent US9234046B2, “Treatment of renal disease” (OPSONA Therapeutics Ltd, priority 2007, dated 2016).
